Test results: paper PMC3510438, “The transmembrane tyrosines Y56, Y91 and Y167 play important roles in determining the affinity and transport rate of the rabbit proton-coupled peptide transporter PepT1” (The International Journal of Biochemistry & Cell Biology, 2009)
Positions count from the first letter of the chain named.

Tests used:
Test in all cases: Uptake of tracer [3H]-D-Phe-L-Gln into Xenopus oocytes
Format in all cases: cell-based, rabbit
[1] = biological target: T1, Y167F-rPepT1 (Oryctolagus cuniculus, UniProt P36836, Y167F)
T1 construct: expressed in transfected cells; host or cells: Xenopus laevis oocytes injected with cRNA
T1 sequence (P36836 1-707 Y167F): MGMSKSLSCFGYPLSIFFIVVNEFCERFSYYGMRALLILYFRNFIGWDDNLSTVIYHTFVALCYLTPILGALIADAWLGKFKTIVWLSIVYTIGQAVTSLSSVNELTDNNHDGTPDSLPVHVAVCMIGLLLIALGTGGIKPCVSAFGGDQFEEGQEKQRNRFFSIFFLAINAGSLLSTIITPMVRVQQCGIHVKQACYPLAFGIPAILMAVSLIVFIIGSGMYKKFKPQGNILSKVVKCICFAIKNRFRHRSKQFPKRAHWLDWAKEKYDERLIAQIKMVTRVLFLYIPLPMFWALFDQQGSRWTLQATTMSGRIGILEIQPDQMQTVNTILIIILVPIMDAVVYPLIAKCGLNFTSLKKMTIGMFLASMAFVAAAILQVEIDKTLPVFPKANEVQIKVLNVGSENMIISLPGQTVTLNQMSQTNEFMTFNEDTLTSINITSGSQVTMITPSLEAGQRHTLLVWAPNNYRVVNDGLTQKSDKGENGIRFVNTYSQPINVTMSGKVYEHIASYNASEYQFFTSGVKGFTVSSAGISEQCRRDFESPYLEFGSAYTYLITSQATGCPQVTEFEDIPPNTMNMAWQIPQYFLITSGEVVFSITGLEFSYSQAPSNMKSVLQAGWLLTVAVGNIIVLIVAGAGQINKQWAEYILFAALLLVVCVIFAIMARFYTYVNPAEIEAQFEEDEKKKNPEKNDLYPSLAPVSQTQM
Protocol: (§1) rPepT1 constructs were linearised with XbaI (New England Biolabs, UK) and cRNA generated by in vitro transcription (T7 mMessage mMachine, Ambion, Cambridgeshire, UK). Xenopus laevis oocytes were obtained under MS222 anaesthesia (0.2%, w/v) in accordance with the UK Animals (Scientific Procedures) Act, 1986, and maintained at 18 °C in modified Barth's medium (88 mM NaCl, 1 mM KCl, 0.82 mM MgSO4, 2.4 mM NaHCO3, 0.42 mM CaCl2, 10 mM Hepes, 5 mM sodium pyruvate, 50 μg ml^−1 gentamicin (Fluka, Poole, UK), adjusted to pH 7.6 with 1 M NaOH). Transport measurements were performed at least 72 h after micro-injection of oocytes with 27nl cRNA (1 μg/μl), with medium changed daily.
(§2) Uptake of [^3H]-D-Phe-L-Gln (17.4 Ci/mmole, custom synthesised, Cambridge Research Biochemicals, Stockton-on-Tees, UK) was performed as previously described ([Meredith, 2004]). Briefly, 5 oocytes were incubated in 100 μl of uptake medium (95 mM NaCl, 2 mM KCl, 1 mM CaCl2, 0.42 mM MgCl2, 10 mM Tris/Hepes pH 7.4 or Tris/Mes pH 5.5) with tracer (0.4 μM) [^3H]-D-Phe-L-Gln. After incubation, the oocytes were washed sequentially five times in 1 ml of ice-cold 120 mM NaCl solution, lysed individually with 100 μl 2% (w/v) SDS and liquid scintillation counted. As a control non-injected oocytes were also incubated in uptake medium with D-Phe-L-Gln as above.

[2] = biological target: T2, Y167R-rPepT1 (Oryctolagus cuniculus, UniProt P36836, Y167R); settings: both pHout 5.5 and 7.4
T2 construct: expressed in transfected cells; host or cells: Xenopus laevis oocytes injected with cRNA
T2 sequence (P36836 1-707 Y167R): T1 sequence (P36836 1-707 Y167F) with F167R
Protocol: as §1, §2

[3] = biological target: T3, Y56F/T58Y-rPepT1 (Oryctolagus cuniculus, UniProt P36836, T58Y/Y56F); settings: both pHout 5.5 and 7.4
T3 construct: expressed in transfected cells; host or cells: Xenopus laevis oocytes injected with cRNA
T3 sequence (P36836 1-707 Y56F/T58Y): T1 sequence (P36836 1-707 Y167F) with Y56F, T58Y, F167Y
Protocol: as §1, §2

[^3H]-D-Phe-L-Gln
reduction of uptake compared to the wild-type ([1]; both pHout 5.5 and 7.4): > 90%
decrease in rate of uptake compared to the wild-type ([1]; pHout 5.5, 1 h): ~90%
reduction of uptake compared to the wild-type [2]: > 90%
reduction of uptake compared to the wild-type [3]: > 90%
